Experimental findings from patent US10723723B2, “Substituted bicycle heterocyclic derivatives useful as ROMK channel inhibitors” (BRISTOL-MYERS SQUIBB COMPANY, priority 2016, dated 2020) are described below.

In one data set the target is hERG channels (Homo sapiens (Human), UniProt Q12809). The data set is described as follows: hERG Manual Patch Clamp Assay (HEK 293 cells stably expressing hERG channels). It is filed as cell-based. Particulars: human, HEK 293 cells stably expressing hERG channels, pH 7.4.
Sequence of hERG channels (Q12809 whole entry): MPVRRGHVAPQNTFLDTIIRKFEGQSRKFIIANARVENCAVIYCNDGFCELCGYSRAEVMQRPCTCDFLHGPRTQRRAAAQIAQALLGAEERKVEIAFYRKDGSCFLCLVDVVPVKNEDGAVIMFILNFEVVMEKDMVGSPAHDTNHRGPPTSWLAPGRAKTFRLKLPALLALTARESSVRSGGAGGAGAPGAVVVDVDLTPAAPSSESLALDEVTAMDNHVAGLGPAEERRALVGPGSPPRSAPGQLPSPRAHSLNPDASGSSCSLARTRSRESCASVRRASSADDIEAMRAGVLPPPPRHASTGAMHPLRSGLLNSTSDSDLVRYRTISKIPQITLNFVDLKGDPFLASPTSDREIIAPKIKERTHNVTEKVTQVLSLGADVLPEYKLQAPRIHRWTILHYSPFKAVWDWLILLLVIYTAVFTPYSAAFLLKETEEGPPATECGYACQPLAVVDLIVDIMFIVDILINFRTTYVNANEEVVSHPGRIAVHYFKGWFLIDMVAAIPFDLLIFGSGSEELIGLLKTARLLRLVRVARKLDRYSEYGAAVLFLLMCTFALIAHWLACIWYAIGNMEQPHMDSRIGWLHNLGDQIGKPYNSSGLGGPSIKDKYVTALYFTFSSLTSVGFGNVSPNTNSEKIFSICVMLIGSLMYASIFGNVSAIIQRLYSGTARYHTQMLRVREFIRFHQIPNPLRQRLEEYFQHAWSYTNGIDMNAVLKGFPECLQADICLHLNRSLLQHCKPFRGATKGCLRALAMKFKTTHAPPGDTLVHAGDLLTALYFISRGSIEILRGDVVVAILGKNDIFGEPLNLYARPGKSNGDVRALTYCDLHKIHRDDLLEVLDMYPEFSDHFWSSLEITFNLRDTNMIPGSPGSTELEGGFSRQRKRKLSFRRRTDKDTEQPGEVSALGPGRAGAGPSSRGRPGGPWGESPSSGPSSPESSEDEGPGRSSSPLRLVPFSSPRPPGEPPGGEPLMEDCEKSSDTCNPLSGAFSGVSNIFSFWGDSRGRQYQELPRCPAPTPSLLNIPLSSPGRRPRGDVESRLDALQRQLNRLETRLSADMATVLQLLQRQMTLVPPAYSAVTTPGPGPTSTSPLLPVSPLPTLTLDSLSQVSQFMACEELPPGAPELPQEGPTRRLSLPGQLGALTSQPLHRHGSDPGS
Experimental: hERG electrophysiology assay: The experimental compounds were assessed for hERG activity on HEK 293 cells stably expressing hERG channels using patch clamp technique. Coverslips plated with hERG expressing cells were placed in the experimental chamber and were perfused with a solution composed of (in mM): 140 NaCl, 4 KCl, 1.8 CaCl2), 1 MgCl2, 10 Glucose, 10 HEPES (pH 7.4, NaOH) at room temperature. Borosilicate patch pipettes had tip resistances of 2-4 Mohms when filled with an internal solution containing: 130 KCl, 1 MgCl2, 1 CaCl2), 10 EGTA, 10 HEPES, 5 ATP-K2 (pH 7.2, KOH). The cells were clamped at −80 mV in whole cell configuration using an Axopatch 200B (Axon instruments, Union City, Calif.) patch clamp amplifier controlled by pClamp (Axon instruments) software. Upon formation of a gigaseal, the following voltage protocol was repeatedly (0.05 Hz) applied to record tail currents: depolarization step from −80 mV to +20 mV for 2 seconds followed by a hyperpolarization step to −65 mV (3 seconds) to elicit tail currents. Compounds were applied after stabilization of tail current. First, tail currents were recorded in presence of extracellular solution alone (control) and subsequently, in extracellular solution containing increasing compound concentrations. Each compound concentration was applied for 2-5 minutes. The percentage inhibition at each concentration was calculated as reduction in peak tail current with respect to the peak tail current recorded in the presence of control solution. Data analysis was performed in a custom made template. The percent inhibitions at different concentrations were plotted to obtain a concentration response curve, which was subsequently fitted with a four parameter equation to calculate hERG IC50 value.
A lower hERG % Inhibition value indicates less inhibition of the hERG current
`Cc1c(C(O)CN(C)Cc2ccc(-c3ccc(C#N)c(F)c3)nc2)ccc2c1COC2=O` (single isomer, unassigned) [Example 21-I, 2-fluoro-4-(5-(((2-hydroxy-2-(4-methyl-1-oxo-1,3-dihydroisobenzofuran-5-yl)ethyl)(methyl)amino)methyl)pyridin-2-yl)benzonitrile] displayed an inhibition at 1 µM of 68%.
The same measure, in the same setting: in the case of `Cc1c([C@@H](O)CNCc2cnn(-c3ccc4oc(=O)n(C)c4c3)c2)ccc2c1COC2=O` [Example 81, (R)-5-(4-(((2-hydroxy-2-(4-methyl-1-oxo-1,3-dihydroisobenzofuran-5-yl)ethyl)amino)methyl)-1H-pyrazol-1-yl)-3-methylbenzo[d]oxazol-2(3H)-one] it was 6%.
Same read-out and setting: in the case of `Cc1c(C(O)CNCc2ccc(-c3ccc(C#N)c(F)c3)nc2)ccc2c1COC2=O` (centres unmarked) [Example 3-I, 2-fluoro-4-(5-(((2-hydroxy-2-(4-methyl-1-oxo-1,3-dihydroisobenzofuran-5-yl)ethyl)amino)methyl)pyridin-2-yl)benzonitrile] it was 66%; in that of `CCOC(=O)c1nn(-c2cc(C)c(C#N)cn2)cc1CNC[C@H](O)c1ccc2c(c1C)COC2=O` [Example 98, ethyl (R)-1-(5-cyano-4-methylpyridin-2-yl)-4-(((2-hydroxy-2-(4-methyl-1-oxo-1,3-dihydroisobenzofuran-5-yl)ethyl)amino)methyl)-1H-pyrazole-3-carboxylate], 54%; in that of `Cc1cc(-c2ccc(CNCC(O)c3ccc4c(c3C)COC4=O)cn2)ncc1C#N` (single isomer, unassigned) [Example 4-I, 5′-(((2-hydroxy-2-(4-methyl-1-oxo-1,3-dihydroisobenzofuran-5-yl)ethyl)amino)methyl)-4-methyl-[2,2′-bipyridine]-5-carbonitrile], 22%.
Still for that read-out and setting: the figure for `Cc1c([C@@H](O)CNCc2ccc(-n3cc(C#N)c(C4CC4)n3)nc2)ccc2c1COC2=O` [Example 116, (R)-3-cyclopropyl-1-(5-(((2-hydroxy-2-(4-methyl-1-oxo-1,3-dihydroisobenzofuran-5-yl)ethyl)amino)methyl)pyridin-2-yl)-1H-pyrazole-4-carbonitrile] is 76%.

For another data set, the target named is hROMK (human Kir1.1) (Homo sapiens (Human), UniProt P48048). The data set is described as follows: Thallium Flux Assay (FluxOR, CHO T-Rex hROMK stable cell line). It is filed as cell-based. Particulars: CHO T-Rex hROMK cells, 10-point concentration response curve; read-out: Human ROMK TH Flux IC50.
Sequence of hROMK (human Kir1.1) (P48048 whole entry): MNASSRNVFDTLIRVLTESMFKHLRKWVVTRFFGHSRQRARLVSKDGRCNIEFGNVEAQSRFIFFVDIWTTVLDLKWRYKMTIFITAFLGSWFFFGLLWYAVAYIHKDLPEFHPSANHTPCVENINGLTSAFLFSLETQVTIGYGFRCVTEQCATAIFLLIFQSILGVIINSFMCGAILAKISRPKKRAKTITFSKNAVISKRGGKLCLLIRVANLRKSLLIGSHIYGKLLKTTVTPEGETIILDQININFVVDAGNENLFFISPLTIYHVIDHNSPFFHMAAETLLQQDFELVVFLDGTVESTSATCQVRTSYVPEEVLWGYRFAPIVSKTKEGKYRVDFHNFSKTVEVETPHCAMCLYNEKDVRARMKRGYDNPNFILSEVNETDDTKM
Regarding `COc1cc(-n2cc(CNC[C@H](O)c3ccc4c(c3C)COC4=O)cn2)ccn1` [Example 80, (R)-5-(1-hydroxy-2-(((1-(2-methoxypyridin-4-yl)-1H-pyrazol-4-yl)methyl)amino)ethyl)-4-methylisobenzofuran-1(3H)-one], the IC50 is 0.53 µM.
On to `Cc1cc(C#N)cnc1-n1cc(CNC[C@H](O)c2ccc3c(c2C)COC3=O)cn1` [Example 78, (R)-6-(4-(((2-hydroxy-2-(4-methyl-1-oxo-1,3-dihydroisobenzofuran-5-yl)ethyl)amino)methyl)-1H-pyrazol-1-yl)-5-methylnicotinonitrile], for which the 50% inhibitory concentration (IC50) turned out to be 0.44 µM.
Still for that read-out and setting: in the case of `Cc1cc(-c2nc(CNC[C@H](O)c3ccc4c(c3C)COC4=O)cn2C)ncc1C#N` [Example 86, (R)-6-(4-(((2-hydroxy-2-(4-methyl-1-oxo-1,3-dihydroisobenzofuran-5-yl)ethyl)amino)methyl)-1-methyl-1H-imidazol-2-yl)-4-methylnicotinonitrile] it was 0.43 µM; in that of `Cc1c(C(O)CN(C)Cc2ccc(-n3ccc4c(C#N)cccc43)nc2)ccc2c1COC2=O` (single isomer, unassigned) [Example 25-II, 1-(5-(((2-hydroxy-2-(4-methyl-1-oxo-1,3-dihydroisobenzofuran-5-yl)ethyl)(methyl)amino)methyl)pyridin-2-yl)-1H-indole-4-carbonitrile], 0.52 µM; in that of `CN(Cc1ccc(-c2ccc(C#N)c(F)c2)nc1)CC(O)c1ccc2oc(=O)n(C)c2c1` (single isomer, unassigned) [Example 24-II, 2-fluoro-4-(5-(((2-hydroxy-2-(3-methyl-2-oxo-2,3-dihydrobenzo[d]oxazol-5-yl)ethyl)(methyl)amino)methyl)pyridin-2-yl)benzonitrile], 2.4 µM.
Still for that read-out and setting: the figure for `Cc1c([C@@H](O)CNCc2cnn(-c3cc(N4CCOC4=O)ccn3)c2)ccc2c1COC2=O` [Example 143, (R)-3-(2-(4-(((2-hydroxy-2-(4-methyl-1-oxo-1,3-dihydroisobenzofuran-5-yl)ethyl)amino)methyl)-1H-pyrazol-1-yl)pyridin-4-yl)oxazolidin-2-one] is 1 µM; for `CNC(=O)O[C@@H](CNCc1cnn(-c2cc(C)c(C#N)cn2)c1)c1ccc2c(c1C)COC2=O` [Example 144, (R)-2-(((1-(5-cyano-4-methylpyridin-2-yl)-1H-pyrazol-4-yl)methyl)amino)-1-(4-methyl-1-oxo-1,3-dihydroisobenzofuran-5-yl)ethyl methylcarbamate] it is 0.14 µM.
Still for that read-out and setting: the figure for `Cc1c(C(CO)NCCc2cccc(-c3ccc(C#N)c(F)c3)c2)ccc2c1COC2=O` (single isomer, unassigned) [Example 15-I, 3-fluoro-3′-(2-((2-hydroxy-1-(4-methyl-1-oxo-1,3-dihydroisobenzofuran-5-yl)ethyl)amino)ethy)-[1,1′-biphenyl]-4-carbonitrile] is 2 µM; for `Cc1cn(-c2ccc(CNC[C@H](O)c3ccc4c(c3C)COC4=O)c(C)n2)cn1` [Example 77] it is 0.19 µM.
Regarding `Cc1cc(-n2cc(CNC[C@H](NS(=O)(=O)C3CC3)c3ccc4c(c3C)COC4=O)cn2)ncc1C#N` [Example 62, (R)-N-(2-(((1-(5-cyano-4-methylpyridin-2-yl)-1H-pyrazol-4-yl)methyl)amino)-1-(4-methyl-1-oxo-1,3-dihydroisobenzofuran-5-yl)ethyl)cyclopropanesulfon-amide], the IC50 worked out at 0.39 µM.
Same read-out and setting: the figure for `CN(Cc1ccc(-c2ccc(C#N)c(F)c2)nc1)CC(O)c1ccc2oc(=O)n(C)c2c1` (single isomer, unassigned) [Example 24-I, 2-fluoro-4-(5-(((2-hydroxy-2-(3-methyl-2-oxo-2,3-dihydrobenzo[d]oxazol-5-yl)ethyl)(methyl)amino)methyl)pyridin-2-yl)benzonitrile] is 2.4 µM.
Regarding `Cc1cc(-c2nc(CNC[C@H](O)c3ccc4c(c3C)COC4=O)n(C)n2)ncc1C#N` [Example 42, (R)-6-(5-(((2-hydroxy-2-(4-methyl-1-oxo-1,3-dihydroisobenzofuran-5-yl)ethyl)amino)methyl)-1-methyl-1H-1,2,4-triazol-3-yl)-4-methylnicotinonitrile], the half-maximal inhibitory concentration (IC50) was 0.855 µM.
Regarding `Cc1c([C@@H](O)CNCc2ccc(-n3cc(C(N)=O)cn3)nc2)ccc2c1COC2=O` [Example 154, (R)-1-(5-(((2-hydroxy-2-(4-methyl-1-oxo-1,3-dihydroisobenzofuran-5-yl)ethyl)amino)methyl)pyridin-2-yl)-1H-pyrazole-4-carboxamide], the IC50 is 1 µM.
For the compound `Cc1c([C@@H](O)CNCc2cnn(-c3ccc4oc(=O)n(C)c4n3)c2)ccc2c1COC2=O` [Example 145, (R)-5-(4-(((2-hydroxy-2-(4-methyl-1-oxo-1,3-dihydroisobenzofuran-5-yl)ethyl)amino)methyl)-1H-pyrazol-1-yl)-3-methyloxazolo[4,5-b]pyridin-2(3H)-one], the IC50 came to 0.13 µM.
For the compound `Cc1c(C(CO)N(C)Cc2cnc(-n3ncc4c(C#N)cccc43)nc2)ccc2c1COC2=O` (centres unmarked) [Example 2-I], the IC50 came to 1.9 µM.
Turning to `Cc1c(C(O)CN(C)Cc2cnc(-c3ccc4oc(=O)n(C)c4c3)nc2)ccc2c1COC2=O` (centres unmarked) [Example 9-I], the IC50 was found to be 0.29 µM.
Consider `Cc1c(C(O)CN(C)Cc2cnc(-n3ncc4ncccc43)nc2)ccc2c1COC2=O` (single isomer, unassigned) [Example 17-I, 5-(2-(((2-(1H-pyrazolo[4,3-b]pyridin-1-yl)pyrimidin-5-yl)methyl)(mehyl)amino)-1-hydroxyethyl)-4-methylisobenzofuran-1(3H)-one], for which the IC50 was determined as 1.5 µM.
Consider `Cc1cc(-n2cc(CNCC(O)c3ccc4c(c3C)C(C)OC4=O)cn2)ncc1C#N` (single isomer, unassigned) [Example 172-I, 6-(4-(((2-(3,4-dimethyl-1-oxo-1,3-dihydroisobenzofuran-5-yl)-2-hydroxyethyl)amino)meth-yl)-1H-pyrazol-1-yl)-4-methylnicotinonitrile], for which the IC50 worked out at 0.85 µM.
Still for that read-out and setting: in the case of `Cc1c(C(O)CN(C)Cc2ccc(-c3ccc4oc(=O)n(C)c4c3)nc2)ccc2c1COC2=O` (single isomer, unassigned) [Example 1-II, 5-(5-(((2-hydroxy-2-(4-methyl-1-oxo-1,3-dihydroisobenzofuran-5-yl)ethyl)(methyl)amino)methyl)pyridin-2-yl)-3-methylbenzo[d]oxazol-2(3H)-one] it was 0.83 µM; in that of `Cc1cc(-n2cc(CNC[C@H](O)c3ccc4c(c3C)COC4=O)c3ncccc32)ncc1C#N` [Example 168, (R)-6-(3-(((2-hydroxy-2-(4-methyl-1-oxo-1,3-dihydroisobenzofuran-5-yl)ethyl)amino)methyl)-1H-pyrrolo[3,2-b]pyridin-1-yl)-4-methylnicotinonitrile], 0.12 µM; in that of `Cc1ncn(-c2ncc(CNC[C@H](O)c3ccc4c(c3C)COC4=O)cn2)n1` [Example 123, (R)-5-(1-hydroxy-2-(((2-(3-methyl-1H-1,2,4-ttiazol-1-yl)pyrimidin-5-yl)methyl)amino)ethyl)-4-methylisobenzofuran-1(3H)-one], 0.21 µM.
On the same count and under the same terms, in the case of `CCc1nn(-c2ccc(CNC[C@H](O)c3ccc4c(c3C)COC4=O)cn2)cc1C#N` [Example 103, (R)-3-ethyl-1-(5-(((2-hydroxy-2-(4-methyl-1-oxo-1,3-dihydroisobenzofuran-5-yl)ethyl)amino)methyl)pyridin-2-yl)-1H-pyrazole-4-carbonitrile] it was 0.0552 µM.
On the same count and under the same terms, in the case of `CN(Cc1ccc(-c2ccc3oc(=O)n(C)c3c2)nc1)CC(O)c1ccc2oc(=O)n(C)c2c1` (single isomer, unassigned) [Example 5-I] it was 1.5 µM.

Broadly, the inhibition is the change of the read-out against control, counted positive when it falls. The low end stands for little suppression, the high end for strong suppression. By IC50 is commonly meant the concentration that gives 50% inhibition.
